Measured values as given in patent US20200010482A1, “INHIBITORS OF BETA SECRETASE” (Janssen Pharmaceutica NV, priority 2017, published 2020).

How the values were obtained:
[1] = target: T1, BACE2 (Homo sapiens, UniProt Q9Y5Z0); experiment: BACE2 biochemical FRET based assay; conditions: recombinant BACE2 0.4 μg/ml, 10 μM substrate, 450 min, pH 5.0; read-out: BIOCHEMICAL FRET BASED ASSAY pIC50 (converted)
T1 construct: recombinant BACE2 protein in a final concentration of 0.4 μg/ml
T1 sequence (Q9Y5Z0 63-518): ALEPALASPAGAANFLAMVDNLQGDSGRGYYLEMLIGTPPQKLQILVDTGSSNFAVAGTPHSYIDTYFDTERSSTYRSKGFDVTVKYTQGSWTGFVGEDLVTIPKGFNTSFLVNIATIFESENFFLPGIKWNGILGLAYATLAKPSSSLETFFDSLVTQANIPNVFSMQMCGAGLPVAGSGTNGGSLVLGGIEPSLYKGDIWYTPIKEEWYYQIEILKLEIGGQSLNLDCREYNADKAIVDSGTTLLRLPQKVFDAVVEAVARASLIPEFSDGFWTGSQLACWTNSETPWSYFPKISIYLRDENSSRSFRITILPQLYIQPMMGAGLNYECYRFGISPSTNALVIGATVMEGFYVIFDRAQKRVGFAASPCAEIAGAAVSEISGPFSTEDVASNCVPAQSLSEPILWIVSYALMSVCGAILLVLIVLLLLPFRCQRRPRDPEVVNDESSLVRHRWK
Description: (§1) This assay is a Fluorescence Resonance Energy Transfer Assay (FRET) based assay. The substrate for this assay contains the ‘Swedish’ Lys-Met/Asn-Leu mutation of the amyloid precursor protein (APP) beta-secretase cleavage site. This substrate also contains two fluorophores: (7-methoxycoumarin-4-yl) acetic acid (Mca) is a fluorescent donor with excitation wavelength at 320 nm and emission at 405 nm and 2,4-Dinitrophenyl (Dnp) is a proprietary quencher acceptor. […] Upon cleavage by the beta-secretase, the fluorophore Mca is separated from the quenching group Dnp, restoring the full fluorescence yield of the donor. The increase in fluorescence is linearly related to the rate of proteolysis.
Briefly in a 384-well format recombinant BACE2 protein in a final concentration of 0.4 μg/ml is incubated for 450 minutes at room temperature with 10 μM substrate in incubation buffer (50 mM Citrate buffer pH 5.0, 0.05% PEG, no DMSO) in the absence or presence of compound. Next the amount of proteolysis is directly measured by fluorescence measurement at T=0 and T=450 (excitation at 320 nm and emission at 405 nm). Results are expressed in RFU (Relative Fluorescence Units), as difference between T450 and TO.
(§2) A best-fit curve is fitted by a minimum sum of squares method to the plot of % Controlmin versus compound concentration. From this an IC50 value (inhibitory concentration causing 50% inhibition of activity) can be obtained. • LC=Median of the low control values=Low control: Reaction without enzyme • HC=Median of the High control values=High Control: Reaction with enzyme
(§3) % Effect=100−[(sample−LC)/(HC−LC)*100]
(§4) % Control=(sample/HC)*100
(§5) % Controlmin=(sample−LC)/(HC−LC)*100

[2] = target: T2, BACE1 (Homo sapiens, UniProt P56817); experiment: BACE1 biochemical FRET based assay; conditions: recombinant BACE1 0.04 μg/ml, 20 μM substrate, 450 min, pH 5.0; read-out: BIOCHEMICAL FRET BASED ASSAY pIC50 (converted)
T2 construct: recombinant BACE1 protein in a final concentration of 0.04 μg/ml
Description: as §1, with “this assay is an APP derived 13 amino acids peptide that contains the” for “this assay contains the”, “cleavage by BACE1, the fluorophore” for “cleavage by the beta-secretase, the fluorophore”
Briefly in a 384-well format recombinant BACE1 protein in a final concentration of 0.04 μg/ml is incubated for 450 minutes at room temperature with 20 μM substrate in incubation buffer (50 mM Citrate buffer pH 5.0, 0.05% PEG) in the presence of compound or DMSO. Next the amount of proteolysis is directly measured by fluorescence measurement (excitation at 320 nm and emission at 405 nm) at different incubation times (0, 30, 60, 90, 120 and 450 min). For every experiment a time curve (every 30 min between 0 min and 120 min) is used to determine the time where we find the lowest basal signal of the high control. The signal at this time (Tx) is used to subtract from the signal at 450 min. Results are expressed in RFU, as difference between T450 and Tx.
as §2, §3, §4, §5

[3] = system: Abeta 1-42 produced and secreted by SKNBE2 cells expressing hAPP695; experiment: Cellular αLisa assay in SKNBE2 cells, Abeta 1-42; assay type: cell-based, human; conditions: SKNBE2 cells expressing hAPP695, 18 hours incubation; for IC50: Homo sapiens, SKNBE2, 18 h, read-out: CELLULAR αLISA ASSAY IN SKNBE2 CELLS ABETA 42 PIC50 (converted)
Procedure: In two αLisa assays the levels of Abeta total and Abeta 1-42 produced and secreted into the medium of human neuroblastoma SKNBE2 cells are quantified. The assay is based on the human neuroblastoma SKNBE2 expressing the wild type Amyloid Precursor Protein (hAPP695). The compounds are diluted and added to these cells, incubated for 18 hours and then measurements of Abeta 1-42 and Abeta total are taken. Abeta total and Abeta 1-42 are measured by sandwich αLisa. αLisa is a sandwich assay using biotinylated antibody AbN/25 attached to streptavidin coated beads and antibody Ab4G8 or cAb42/26 conjugated acceptor beads for the detection of Abeta total and Abeta 1-42 respectively. In the presence of Abeta total or Abeta 1-42, the beads come into close proximity. The excitation of the donor beads provokes the release of singlet oxygen molecules that trigger a cascade of energy transfer in the acceptor beads, resulting in light emission. Light emission is measured after 1 hour incubation (excitation at […] and emission at 615 nm).
as §2, with “cells preincubated” for “Reaction”, “compound, without biotinylated Ab in the αLisa” for “enzyme”, “cells preincubated without compound” for “Reaction with enzyme”
as §3, §4, §5

T2 sequence (P56817 46-501): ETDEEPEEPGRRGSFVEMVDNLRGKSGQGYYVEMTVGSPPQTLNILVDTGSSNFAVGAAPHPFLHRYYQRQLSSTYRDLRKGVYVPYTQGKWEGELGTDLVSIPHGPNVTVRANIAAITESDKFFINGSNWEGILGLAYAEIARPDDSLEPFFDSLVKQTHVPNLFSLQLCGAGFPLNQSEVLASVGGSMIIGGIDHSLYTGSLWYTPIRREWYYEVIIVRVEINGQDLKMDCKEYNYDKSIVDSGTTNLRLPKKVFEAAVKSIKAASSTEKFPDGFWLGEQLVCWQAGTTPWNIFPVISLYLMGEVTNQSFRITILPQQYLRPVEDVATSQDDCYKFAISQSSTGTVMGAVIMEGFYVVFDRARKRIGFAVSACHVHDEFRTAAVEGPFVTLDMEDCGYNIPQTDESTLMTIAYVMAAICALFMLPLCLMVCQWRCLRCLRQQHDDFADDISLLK

SMILES	IC50 [1] [nM]	IC50 [2] [nM]	IC50 [3] [nM]	CELLULAR αLISA ASSAY IN SKNBE2 CELLS ABETA 42 PIC50 [3]
CCOc1nccc2c1CC1(c3ccc(F)cc3F)N=C(N)SCC1C2 (racemic) [Compound 4]	331	166	186	–
COc1nccc2c1CC1(c3cc(Br)c(F)cc3F)N=C(N)SCC1C2 (racemic) [Compound 6]	219	234	200	–
COc1nccc2c1CC1(c3ccc(Cl)cc3F)N=C(N)SCC1C2 (racemic) [Compound 7]	155	145	70.8	–
COc1nccc2c1CC1(c3cc([N+](=O)[O-])c(F)cc3F)N=C(N)SCC1C2 (racemic) [Compound 8]	537	219	135	–
COc1nccc2c1CC1(c3cc(C#N)ccc3F)N=C(N)SCC1C2 (racemic) [Compound 9]	219	132	20.9	–
COc1nccc2c1CC1(c3cc(-c4cncnc4)ccc3F)N=C(N)SCC1C2 (racemic) [Compound 10]	457	35.5	8.51	–
COc1nccc2c1CC1(c3cc(-c4cncnc4)c(F)cc3F)N=C(N)SCC1C2 (racemic) [Compound 11]	219	21.9	2.95	–
COc1nccc2c1CC1(c3cc(-c4cncc(C#N)c4)ccc3F)N=C(N)SCC1C2 (racemic) [Compound 12]	251	91.2	22.4	–
COCC(C)NCc1ccc(F)c(C23Cc4c(ccnc4OC)CC2CSC(N)=N3)c1 (racemic) [Compound 13]	39.8	70.8	1.45	–
COc1nccc2c1CC1(c3cc4c(cc3F)OCC(=O)N4)N=C(N)SCC1C2 (racemic) [Compound 15]	115	30.2	17.4	–
COc1ncc(Br)c2c1CC1(c3cc(Br)c(F)cc3F)N=C(N)SCC1C2 (racemic) [Compound 19]	282	162	417	–
COc1ncc(-c2cnccc2C)c2c1CC1(c3cc(O)ccc3F)N=C(N)SCC1C2 (racemic) [Compound 26]	479	25.1	42.7	–
COc1ncc(-c2cnccc2C)c2c1C[C@]1(c3cc(-c4cncnc4)ccc3F)N=C(N)SC[C@@H]1C2 (racemic) [Compound 27]	3980	11.7	3.89	–
COc1nccc2c1C[C@]1(c3ccc(F)cc3F)N=C(N)OC[C@@H]1C2 (racemic) [Compound 30]	1150	692	170	–
COc1ncc(-c2cccnc2)c2c1C[C@]1(c3ccc(F)cc3F)N=C(N)OC[C@@H]1C2 (racemic) [Compound 31]	178	69.2	8.91	–
COc1ncc(-c2ccncc2C)c2c1CC1(c3ccc(F)cc3F)N=C(N)OCC1C2 (racemic) [Compound 32]	1120	50.1	7.24	–
COCC(=O)Nc1cc(C23Cc4c(ccnc4OC)CC2CSC(N)=N3)c(F)cc1F (single isomer, unassigned) [Compound 198]	501	1070	–	6.58
COCC(=O)Nc1cc(C23Cc4c(ccnc4OC)CC2CSC(N)=N3)c(F)cc1F (single isomer, unassigned) [Compound 199]	7.08	16.2	–	8.36
COc1nccc2c1C[C@]1(c3cc(-c4cncc(C#N)c4)ccc3F)N=C(N)SC[C@@H]1C2 [Compound 37]	123	42.7	17	–
COc1nccc2c1C[C@]1(c3cc(-c4cncnc4)ccc3F)N=C(N)SC[C@@H]1C2 [Compound 38]	229	15.5	3.55	–
COc1ncc(-c2cncc(C)c2)c2c1C[C@]1(c3ccc(F)cc3F)N=C(N)SC[C@@H]1C2 [Compound 108]	–	7.76	1.32	–
